In patent US20070117743A1, “New antitumoral compounds” (priority 2003, published 2007):
Where a SMILES comes first, the peptide text is derived from it. Bridges are numbered along the chain shown (N, C = ends). [ ]: non-standard residue; d: D form. The star is where a group is joined. d(aIle) = CC[C@H](C)[C@@H](N)C(=O)O; d(aThr) = C[C@@H](O)[C@@H](N)C(=O)O; Hexanoyl(5-Me) = CC(C)CCCC(=O)*; Orn = NCCC[C@H](N)C(=O)O; Dhb = C/C=C(\N)C(=O)O

Experiments:
Assay type in all cases: cell-based, human
[1] = tested on: SK-MEL-28; test: SRB colorimetric assay of cell growth and viability, SK-MEL-28; conditions: 48 hours exposure; for CC50: read-out: LC50 MEL-28
[2] = tested on: HeLa; test: SRB colorimetric assay of cell growth and viability, HeLa; conditions: 48 hours exposure; for CC50: read-out: LC50 HELA
[3] = tested on: IGROV-ET; test: SRB colorimetric assay of cell growth and viability, IGROV-ET; conditions: 48 hours exposure; for CC50: read-out: LC50 IGROV-ET
[4] = tested on: PANC-1; test: SRB colorimetric assay of cell growth and viability, PANC-1; conditions: 48 hours exposure; for CC50: read-out: LC50 PANC-1
[5] = tested on: HT-29; test: SRB colorimetric assay of cell growth and viability, HT-29; conditions: 48 hours exposure; for GI50: read-out: GI50 HT-29; for CC50: read-out: LC50 HT-29
[6] = tested on: K-562; test: SRB colorimetric assay of cell growth and viability, K-562; conditions: 48 hours exposure; for CC50: read-out: LC50 K-562
[7] = tested on: LoVo-Dox; test: SRB colorimetric assay of cell growth and viability, LoVo-Dox; conditions: 48 hours exposure; for CC50: read-out: LC50 LOVO-DOX
Summary of the method: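 Optical density at 490 nm of solubilized SRB, from triplicate wells, yields GI, TGI and LC values. Before staining, cells are fixed for 60 minutes at 4° C in cold TCA after a 48-hour exposure.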

[8] = tested on: DU-145; test: SRB colorimetric assay of cell growth and viability, DU-145; conditions: 48 hours exposure
[9] = tested on: LoVo; test: SRB colorimetric assay of cell growth and viability, LoVo; conditions: 48 hours exposure; for CC50: read-out: LC50 LOVO
[10] = tested on: A-549; test: SRB colorimetric assay of cell growth and viability, A-549; conditions: 48 hours exposure; for GI50: read-out: GI50 A-549; for CC50: read-out: LC50 A-549
[11] = tested on: SK-BR-3; test: SRB colorimetric assay of cell growth and viability, SK-BR-3; conditions: 48 hours exposure
[12] = tested on: HeLa-APL; test: SRB colorimetric assay of cell growth and viability, HeLa-APL; conditions: 48 hours exposure; for CC50: read-out: LC50 HELA-APL
[13] = tested on: LNCaP; test: SRB colorimetric assay of cell growth and viability, LNCaP; conditions: 48 hours exposure; for GI50: read-out: GI50 LN-caP; for CC50: read-out: LC50 LN-caP
[14] = tested on: IGROV-1; test: SRB colorimetric assay of cell growth and viability, IGROV-1; conditions: 48 hours exposure

For `C/C=C1\NC(=O)[C@H](Cc2ccccc2)NC(=O)[C@@H](C(C)C)NC(=O)[C@@H]([C@@H](C)CC)NC(=O)[C@H](NC(=O)[C@H](NC(=O)[C@H](CCCN)NC(=O)[C@H]2CCCN2C(=O)[C@H](NC(=O)[C@@H](NC(=O)[C@@H](NC(=O)[C@H](NC(=O)CCCC(C)C)C(C)C)C(C)C)C(C)C)C(C)C)[C@@H](C)CC)[C@@H](C)OC(=O)[C@H](C(C)C)NC1=O` [Compound 6, [Val^12]-KF] ({Hexanoyl(5-Me)}-[dV]VV[dV][dP][Orn][d(aIle)][d(aThr)][d(aIle)][dV]F[Dhb]V; ester 8-C), the GI50 [1] was 0.175 µM, the “TGI MEL-28” value [1] was 2.94E−07 Molar and the CC50 [1] was 0.492 µM. The GI50 [2] was 0.144 µM, the “TGI HELA” value [2] was 2.63E−07 Molar and the CC50 [2] was 0.48 µM. The GI50 [3] was 0.154 µM, the “TGI IGROV-ET” value [3] was 2.91E−07 Molar and the CC50 [3] was 0.549 µM. For the same compound, the GI50 [4] was 1.02 µM, the “TGI PANC-1” value [4] was 1.96E−06 Molar and the CC50 [4] was 3.8 µM. The “TGI HT-29” value [5] was 2.68E−07 Molar, the GI50 [5] was 0.148 µM and the CC50 [5] was 0.485 µM. For the same compound, the GI50 [6] was 0.661 µM, the “TGI K-562” value [6] was 1.44E−06 Molar and the CC50 [6] was 3.07 µM. The GI50 [7] was 0.159 µM, the “TGI LOVO-DOX” value [7] was 2.83E−07 Molar and the CC50 [7] was 0.503 µM. For the same compound, the GI50 [8] was 0.165 µM, the LC50 (concentration causing 50% net cell kill) [8] was 0.523 µM and the “TGI DU-145” value [8] was 2.94E−07 Molar. The GI50 [9] was 0.133 µM, the “TGI LOVO” value [9] was 2.48E−07 Molar and the CC50 [9] was 0.463 µM. The “TGI A-549” value [10] was 8.54E−07 Molar, the GI50 [10] was 0.257 µM and the CC50 [10] was 2.36 µM. The GI50 [11] was 0.102 µM, the LC50 [11] was 0.482 µM and the “TGI SK-BR-3” value [11] was 2.22E−07 Molar. For the same compound, the GI50 [12] was 0.379 µM, the “TGI HELA-APL” value [12] was 1.04E−06 Molar and the CC50 [12] was 3.11 µM. For the same compound, the “TGI LN-caP” value [13] was 1.00E−06 Molar, the GI50 [13] was 0.313 µM and the CC50 [13] was 2.78 µM. For the same compound, the GI50 [14] was 0.15 µM, the LC50 (concentration causing 50% net cell killing) [14] was 0.598 µM and the “TGI IGROV” value [14] was 2.99E−07 Molar.

In the case of `C/C=C1\NC(=O)[C@H](Cc2ccccc2)NC(=O)[C@@H](C(C)C)NC(=O)[C@@H]([C@@H](C)CC)NC(=O)[C@H](NC(=O)[C@H](NC(=O)[C@H](CCCN)NC(=O)[C@H]2CCCN2C(=O)[C@H](NC(=O)[C@@H](NC(=O)[C@H](NC(=O)[C@H](NC(=O)CCCC(C)C)C(C)C)[C@H](C)O)C(C)C)C(C)C)[C@@H](C)CC)[C@@H](C)OC(=O)[C@H](C(C)C)NC1=O` [Compound 7, [D-Thr^12]-KF], the GI50 [1] is reported as ≥ 6.77 µM, the “TGI MEL-28” value [1] is reported as 6.77E−06 Molar and the CC50 [1] is reported as ≥ 6.77 µM. For the same compound, the GI50 [2] was ≥ 6.77 µM, the “TGI HELA” value [2] was 6.77E−06 Molar and the CC50 [2] was ≥ 6.77 µM. For the same compound, the GI50 [3] was ≥ 6.77 µM, the “TGI IGROV-ET” value [3] was 6.77E−06 Molar and the CC50 [3] was ≥ 6.77 µM. For the same compound, the GI50 [4] was ≥ 6.77 µM, the “TGI PANC-1” value [4] was 6.77E−06 Molar and the CC50 [4] was ≥ 6.77 µM. The “TGI HT-29” value [5] was 6.77E−06 Molar, the GI50 [5] was ≥ 6.77 µM and the CC50 [5] was ≥ 6.77 µM. The GI50 [6] was ≥ 6.77 µM, the “TGI K-562” value [6] was 6.77E−06 Molar and the CC50 [6] was ≥ 6.77 µM. The GI50 [7] was 5.14 µM, the “TGI LOVO-DOX” value [7] was 6.77E−06 Molar and the CC50 [7] was ≥ 6.77 µM. The GI50 [8] was ≥ 6.77 µM, the LC50 (concentration causing 50% net cell kill) [8] was ≥ 6.77 µM and the “TGI DU-145” value [8] was 6.77E−06 Molar. For the same compound, the GI50 [9] was ≥ 6.77 µM, the “TGI LOVO” value [9] was 6.77E−06 Molar and the CC50 [9] was ≥ 6.77 µM. The “TGI A-549” value [10] was 6.77E−06 Molar, the GI50 [10] was ≥ 6.77 µM and the CC50 [10] was ≥ 6.77 µM. The GI50 [11] was ≥ 6.77 µM, the LC50 [11] was ≥ 6.77 µM and the “TGI SK-BR-3” value [11] was 6.77E−06 Molar. The GI50 [12] was ≥ 6.77 µM, the “TGI HELA-APL” value [12] was 6.77E−06 Molar and the CC50 [12] was ≥ 6.77 µM. The “TGI LN-caP” value [13] was 6.77E−06 Molar, the GI50 [13] was 6.04 µM and the CC50 [13] was ≥ 6.77 µM. For the same compound, the GI50 [14] was ≥ 6.77 µM, the LC50 (concentration causing 50% net cell killing) [14] was ≥ 6.77 µM and the “TGI IGROV” value [14] was 6.77E−06 Molar.
